Measured values from patent publication US20230338491A1, “METHOD FOR SCREENING INDIVIDUAL TUMOR NEOANTIGEN PEPTIDE, AND VACCINE FORMULATION THEREOF” (HANGZHOU NEOANTIGEN THERAPEUTICS CO., LTD., priority 2021, published 2023).
Like-named read-outs stand apart in the source and are kept apart here. Ends that are not written are not given here.

Experiment: solubility comparison test in water and mannitol solutions
Type: physicochemical
Text: Mannitol is a common adjuvant (skeleton forming agent) of freeze-dried preparation, which is used as a carrier to form a hard uniform skeleton so as to improve appearance of the freeze-dried preparation in glass bottles. […] Hydroxyl groups in mannitol molecule can form hydrogen bonds with carbonyl groups in peptide bonds, which cannot directly promote dissolution of polypeptides, but can promote formation of micelle. Therefore, solubilization of mannitol is mainly solubility enhancement after micelle formation. Results of solubility comparison test of the same polypeptide in water and mannitol solutions with different concentrations shown in table 7 as follows: […]

[1] = 1% of mannitol solution, read-out: Solubility in 1% of mannitol solution
[2] = 2% of mannitol solution, read-out: Solubility in 2% of mannitol solution
[3] = water, read-out: Solubility in water
[4] = Solubility in 1% of mannitol solution
[5] = Solubility in 2% of mannitol solution

Row | Compound | solubility [1] [µg/mL] | solubility [2] [µg/mL] | solubility [3] [µg/mL] | solubility [4] [µg/mL] | solubility [5] [µg/mL] | solubility (Solubility in water) [µg/mL]
1 | SRKLEDYGEQKSMSISTAKRLAEFLGDQK [HMZH59] | ≥ 1000 | ≥ 1000 | 300 | – | – | –
2 | KGFTQGDVGLAMGKLYRNDFSQTTISRFEA [TZQI66] | ≥ 1000 | ≥ 1000 | < 100 | – | – | –
3 | PGWSLTLGLRCSSRLGLPK [LYLI37, PGWSLTLGLRCSSRLGLPK] | ≥ 1000 | ≥ 1000 | < 100 | – | – | –
4 | CC[C@H](C)[C@H](NC(=O)[C@H](CC(C)C)NC(=O)[C@H](CCC(N)=O)NC(=O)[C@@H](NC(=O)[C@@H](NC(=O)[C@H](CC(C)C)NC(=O)[C@H](C)NC(=O)[C@H](CO)NC(=O)[C@H](CCCCN)NC(=O)CNC(=O)[C@@H](NC(=O)CNC(=O)[C@H](CC(=O)O)NC(=O)[C@H](C)NC(=O)CNC(=O)[C@@H](NC(=O)[C@@H](NC(=O)[C@@H](N)CCCCN)C(C)C)C(C)C)C(C)C)[C@@H](C)O)[C@@H](C)CC)C(=O)N[C@@H](CCC(N)=O)C(=O)N[C@@H](CC(N)=O)C(=O)N[C@@H](Cc1c[nH]cn1)C(=O)O [GWMI01] | – | – | – | ≥ 1000 | ≥ 1000 | < 100
5 | KLVFVRKSLNRIEFRECREEILKFLKK [GWMI13] | ≥ 1000 | ≥ 1000 | < 100 | – | – | –
6 | KKKGQQLSGVNAIYFYADQIYLSAGVPEEH [GWMI10] | ≥ 1000 | ≥ 1000 | < 100 | – | – | –
7 | GQAFKYSSNLLRHMRTHTGEKPF [HMZH60] | – | – | – | ≥ 10000 | ≥ 10000 | < 2000
8 | SVFGDRITGETIRSQNVMAAASK [WKYE17] | ≥ 1000 | ≥ 1000 | < 100 | – | – | –
9 | DIQDLKTCIASTTQNIEQKKK [WJIA11] | ≥ 1000 | ≥ 1000 | < 100 | – | – | –
10 | SSPAEFFELMKGQIRIAKRRVVMASLYLGT [TZQI51] | ≥ 1000 | ≥ 1000 | < 100 | – | – | –
11 | FHDQPHLKRKAVCSFQIYAVPWQGT [HMZH51] | ≥ 10000 | ≥ 10000 | < 2000 | – | – | –
12 | KFKYVGTMEASEDATFNKITRSLQDLQQK [HMZH66] | ≥ 10000 | ≥ 10000 | ≤ 1500 | – | – | –
13 | TSLKGEIAFDPRRAYYLWF [LXJI54, TSLKGEIAFDPRRAYYLWF] | ≥ 1000 | ≥ 1000 | < 100 | – | – | –

Second part, the compound after the results:

Row | solubility [1] [µg/mL] | solubility [2] [µg/mL] | solubility [3] [µg/mL] | solubility [4] [µg/mL] | solubility [5] [µg/mL] | solubility (Solubility in water) [µg/mL] | Compound
14 | > 1000 | > 1000 | < 100 | – | – | – | FITRPPHRFLSLLCLGLRIPQLSV [YMZH19]
15 | ≥ 1000 | ≥ 1000 | 300 | – | – | – | YKQLTIQVLLDRLVLQRLYPLAIQIKK [YMZH10]
16 | ≥ 1000 | ≥ 1000 | < 100 | – | – | – | KEQMMREKEKLMLRLQDYEEKTKK [ZZJI58]
17 | ≥ 1000 | ≥ 1000 | 300 | – | – | – | KLTLASWGPKMVLLRLEHQFAVGK [YMZH14]
18 | ≥ 1000 | ≥ 1000 | < 100 | – | – | – | KKKKFVALVLSTLHMLTYGWTRAFEESRYK [ZZJI44]
19 | ≥ 1000 | ≥ 1000 | 300 | – | – | – | FAEKLTLILQEKYKNYWYPEKPSKGQAY [YMZH17]
